Assay results from patent US10604514B2, “6-(5-membered heteroaryl)isoquinolin-3-yl carboxamides and preparation and use thereof” (Samumed, LLC, priority 2017, dated 2020).
Where two headings read alike, the source gives them in different places.

Columns and labels:
[1] = tested on: Wnt activity (Sp5-Luc reporter in SW480 colon carcinoma cells); experiment: Wnt activity screening assay (Sp5-Luc reporter gene assay); assay type: cell-based, human; details: Homo sapiens; for EC50: Sp5-Luc reporter, SW480 cells, 36 to 48 hours
Outline: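 Compounds at 10 points (1:3 steps, top 10 μM, 0.1% DMSO final) were incubated 36 to 48 h at 37° C with stable Sp5-Luc SW480 reporter cells in 1% FBS medium. Luciferase luminescence was then read and expressed relative to DMSO-only cells. Four-parameter variable-slope fitting yielded EC50 values.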

[2] = biological target: GSK3β kinase (Homo sapiens (Human), UniProt P49841); experiment: GSK3β kinase assay (Ser/Thr 09 peptide Z-lyte, FRET); assay type: biochemical; details: method text calls the value IC50;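 note: Coumarin/fluorescein emission ratio converted to percent phosphorylation against unphosphorylated (0%) and phosphorylated (100%) controls, 1 h compound incubation at room temperature, 11-point threefold dilutions from 10 µM, run in duplicate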
[3] = tested on: Tau phosphorylation at Ser396 (pSer396), SH-SY5Y cells; experiment: Tau phosphorylation at Ser396 (pSer396) in SH-SY5Y cells, ELISA/western blot; assay type: cell-based, human; details: Homo sapiens;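 note: cell lysates probed for reduced Tau pSer396 via ELISA (colorimetric) or western blot (chemiluminescence), both with one shared pSer396 antibody, EC50 for lowering phosphorylation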
[4] = tested on: SW480 colon carcinoma cells; experiment: Cell viability assay (CellTiter-Glo) in SW480 cells; assay type: cell-based, human; details: Homo sapiens; for EC50: 96 h, cell viability, SW480 cells, four days, CellTiter-Glo;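 for all read-outs here: SW480 cells stably carrying an Sp5-luciferase TCF/LEF reporter, luminescent ATP signal as viability measure, DMSO-treated cells as control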
[5] = tested on: LL29 cells (primary human fibroblasts derived from IPF patients), α-smooth muscle actin; experiment: Inhibition of fibrotic process: αSMA in TGF-β1-treated primary human fibroblasts from IPF patients (LL29 cells); assay type: cell-based; details: Homo sapiens, Fibroblast; for EC50: 96 h, % αSMA-positive LL29 cells, TGF-β1 20 ng/mL, 4 days; for inhibition at 10 µM: read-out: percent inhibition at 10 μM
Outline: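 Read-out is the percentage of αSMA-positive cells by high-content imaging, excluding SYTOX green-positive dead/apoptotic cells, normalized to TGF-β1-only wells on the same plate. LL29 cells were exposed for 4 days at 37 °C to 20 ng/mL TGF-β1 plus 11-point, 2-fold compound dilutions in 0.1% DMSO.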

[6] = tested on: IL-6; experiment: IL-6 inhibition in LPS-stimulated human peripheral blood mononuclear cells (HTRF); assay type: cell-based; details: Homo sapiens, PBMC; for EC50: IL-6, LPS-stimulated huPBMCs, HTRF; for inhibition at 10 µM: read-out: percent value in parentheses below EC50 >10
Outline: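 EC50 from a 4-parameter fit of DMSO-normalized HTRF (665/620 nm) IL-6 signal, duplicates. Compound was added to fresh human PBMCs in 1% FBS RPMI for 2 h (top 10 μM, 3-fold, 0.25% DMSO) before 22 h stimulation with LPS at 50 ng/mL, 37 °C.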

[7] = biological target: DYRK1A kinase (Homo sapiens (Human), UniProt Q13627); experiment: DYRK1A kinase assay (Ser/Thr 18 peptide Z-lyte, FRET)
[8] = SH-SY5Y cells, overnight (16-18 h), read-out: pSer396 Tau EC50
[9] = DYRK1A kinase, method text calls the value IC50
[10] = SW480, read-out: percent inhibition at 10 μM

GSK3β kinase, sequence (P49841 whole entry): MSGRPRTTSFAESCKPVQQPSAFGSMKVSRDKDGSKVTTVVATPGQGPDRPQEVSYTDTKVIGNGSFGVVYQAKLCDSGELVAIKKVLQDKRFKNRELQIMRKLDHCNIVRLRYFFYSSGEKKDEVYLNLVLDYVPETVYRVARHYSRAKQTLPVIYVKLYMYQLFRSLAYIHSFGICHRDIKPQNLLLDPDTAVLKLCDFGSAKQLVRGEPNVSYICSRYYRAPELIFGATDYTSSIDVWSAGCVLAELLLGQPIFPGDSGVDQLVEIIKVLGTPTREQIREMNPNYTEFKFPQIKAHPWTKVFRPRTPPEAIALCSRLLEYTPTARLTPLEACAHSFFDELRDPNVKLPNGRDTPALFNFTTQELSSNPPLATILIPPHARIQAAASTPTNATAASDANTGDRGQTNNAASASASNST

SMILES: [2H]C([2H])([2H])N([C@H]1CC[C@H](C(=O)Nc2cc3cc(-c4cnn(C)c4)ccc3cn2)CC1)C([2H])([2H])[2H] [Compound 145, trans-4-(Bis(methyl-d3)amino)-N-(6-(1-methyl-1H-pyrazol-4-yl)isoquinolin-3-yl)cyclohexane-1-carboxamide]
- EC50 [1]: 1820 nM
- EC50 [2]: 80 nM
- EC50 [3, 8]: 0.503 µM
- EC50 [4]: 1490 nM
- EC50 [5]: 72 nM
- EC50 [6]: 371 nM
- EC50 [7]: 2 nM

SMILES: Cc1nnc(-c2ccc3cnc(NC(=O)N4CCN(C(C)C)CC4)cc3c2)s1 [Compound 146, 4-Isopropyl-N-(6-(5-methyl-1,3,4-thiadiazol-2-yl)isoquinolin-3-yl) piperazine-1-carboxamide]
- EC50 [1]: 3110 nM
- EC50 [2]: 62 nM
- EC50 [3, 8]: 1 µM
- EC50 [4]: 3840 nM
- EC50 [5]: > 10000 nM
- inhibition at 10 µM [5]: 35.1%
- inhibition at 10 µM [6]: 2.1%
- EC50 [6]: > 10000 nM
- EC50 [7, 9]: 22 nM

SMILES: Cc1nnc(-c2ccc3cnc(NC(=O)N4CCC(NCCC(F)(F)F)CC4)cc3c2)s1 [Compound 147, N-(6-(5-Methyl-1,3,4-thiadiazol-2-yl)isoquinolin-3-yl)-4-((3,3,3-trifluoropropyl)amino)piperidine-1-carboxamide]
- EC50 [1]: 3330 nM
- EC50 [2]: 37 nM
- EC50 [3, 8]: 1.1 µM
- EC50 [4]: 4140 nM
- EC50 [5]: 1640 nM
- inhibition at 10 µM [6]: 36.8%
- EC50 [6]: > 10000 nM
- EC50 [7, 9]: 18 nM

SMILES: Cc1ncc(-c2ccc3cnc(NC(=O)[C@H]4CC[C@H](NCCC(F)(F)F)CC4)cc3c2)o1 [Compound 148, trans-N-(6-(2-Methyloxazol-5-yl)isoquinolin-3-yl)-4-((3,3,3-trifluoropropyl)amino)cyclohexane-1-carboxamide]
- EC50 [1]: 3440 nM
- EC50 [2]: 257 nM
- EC50 [3, 8]: 0.599 µM
- EC50 [4]: 1200 nM
- EC50 [5]: 286 nM
- EC50 [6]: 414 nM
- EC50 [7, 9]: 14 nM

SMILES: Cc1ncc(-c2ccc3cnc(NC(=O)[C@H]4CC[C@H](N)CC4)cc3c2)o1 [Compound 149, trans-4-amino-N-(6-(2-methyloxazol-5-yl)isoquinolin-3-yl)cyclohexane-1-carboxamide]
- EC50 [1]: 1400 nM
- EC50 [2]: 128 nM
- EC50 [3, 8]: 1.1 µM
- EC50 [4]: 1340 nM
- EC50 [5]: 216 nM
- EC50 [6]: 379 nM
- EC50 [7, 9]: 7 nM

SMILES: Cc1nnc(-c2ccc3cnc(NC(=O)N4CCC(N)CC4)cc3c2)s1 [Compound 150, 4-Amino-N-(6-(5-methyl-1,3,4-thiadiazol-2-yl)isoquinolin-3-yl)piperidine-1-carboxamide]
- EC50 [1]: 2190 nM
- EC50 [2]: 23 nM
- EC50 [3, 8]: 0.272 µM
- EC50 [4]: 3920 nM
- EC50 [5]: > 10000 nM
- inhibition at 10 µM [5]: 43.7%
- inhibition at 10 µM [6]: 5.7%
- EC50 [6]: > 10000 nM
- EC50 [7, 9]: 13 nM

SMILES: Cc1nnc(-c2ccc3cnc(NC(=O)N4[C@@H]5CC[C@H]4C[C@H](N)C5)cc3c2)s1 [Compound 151, (1R,5S)-3-exo-Amino-N-(6-(5-methyl-1,3,4-thiadiazol-2-yl)isoquinolin-3-yl)-8-azabicyclo[3.2.1]octane-8-carboxamide]
- inhibition at 10 µM [1, 10]: 4.4%
- EC50 [1]: > 10000 nM
- EC50 [2]: 103 nM
- EC50 ([3]; SH-SY5Y, read-out: pSer396 Tau EC50 (μM)): 2.6 µM
- EC50 [4]: > 10000 nM
- inhibition at 10 µM [4, 10]: 0%
- EC50 [5]: 2690 nM
- inhibition at 10 µM [6]: 13.1%
- EC50 [6]: > 10000 nM
- EC50 [7, 9]: 9 nM

SMILES: Cc1ncc(-c2ccc3cnc(NC(=O)C4CCC(N5CC5CF)CC4)cc3c2)o1 (stereo not drawn) [Compound 154, trans-4-(2-(fluoromethyl)aziridin-1-yl)-N-(6-(2-methyloxazol-5-yl)isoquinolin-3-yl)cyclohexane-1-carboxamide]
- EC50 [1]: 2760 nM
- EC50 [2]: 124 nM
- EC50 [3, 8]: 0.58 µM
- EC50 [4]: 761 nM
- EC50 [5]: 240 nM
- EC50 [6]: 1130 nM
- EC50 [7]: 5 nM

SMILES: Cc1nnc(-c2ccc3cnc(NC(=O)N4CCC(NCCF)CC4)cc3c2)s1 [Compound 156, 4-((2-Fluoroethyl)amino)-N-(6-(5-methyl-1,3,4-thiadiazol-2-yl)isoquinolin-3-yl)piperidine-1-carboxamide]
- EC50 [1]: 2840 nM
- EC50 [2]: 34 nM
- EC50 [3, 8]: 0.615 µM
- EC50 [4]: 2550 nM
- EC50 [5]: 2380 nM
- inhibition at 10 µM [6]: 28.8%
- EC50 [6]: > 10000 nM
- EC50 [7, 9]: 7 nM

SMILES: [2H]c1c([2H])c([2H])c(C(=O)Nc2cc3cc(-c4cnc(C)n4C)ccc3cn2)c(F)c1[2H] [Compound 157, N-(6-(1,2-Dimethyl-1H-imidazol-5-yl)isoquinolin-3-yl)-2-fluorobenzamide-3,4,5,6-d4]
- EC50 [1]: 1730 nM
- EC50 [2]: > 10000 nM
- EC50 [3, 8]: 0.72 µM
- EC50 [4]: 2380 nM
- EC50 [5]: 5790 nM
- inhibition at 10 µM [6]: 0%
- EC50 [6]: > 10000 nM
- EC50 [7]: 19 nM

SMILES: [2H]c1c([2H])c(C(=O)Nc2cc3cc(-c4cnc(C)n4C)ccc3cn2)c([2H])c([2H])c1F [Compound 158, N-(6-(1,2-Dimethyl-1H-imidazol-5-yl)isoquinolin-3-yl)-4-fluorobenzamide-2,3,5,6-d4]
- EC50 [1]: 514 nM
- EC50 [2]: 2600 nM
- EC50 [3, 8]: > 10 µM
- EC50 [4]: 781 nM
- EC50 [5]: 1220 nM
- EC50 [6]: 3360 nM
- EC50 [7]: 5 nM

SMILES: [2H]c1c([2H])c([2H])c(C(=O)Nc2cc3cc(-c4cnc(C)n4C)ccc3cn2)c(Cl)c1[2H] [Compound 159, 2-Chloro-N-(6-(1,2-dimethyl-1H-imidazol-5-yl)isoquinolin-3-yl)benzamide-3,4,5,6-d4]
- EC50 [1]: 4200 nM
- EC50 [2]: > 10000 nM
- EC50 [3, 8]: > 10 µM
- EC50 [4]: 8000 nM
- EC50 [5]: > 10000 nM
- inhibition at 10 µM [5]: 31.4%
- inhibition at 10 µM [6]: 1.6%
- EC50 [6]: > 10000 nM
- EC50 [7]: 27 nM

SMILES: [2H]c1c([2H])c(C(=O)Nc2cc3cc(-c4cnc(C)n4C)ccc3cn2)c([2H])c([2H])c1Cl [Compound 160, 4-Chloro-N-(6-(1,2-dimethyl-1H-imidazol-5-yl)isoquinolin-3-yl)benzamide-2,3,5,6-d4]
- EC50 [1]: 309 nM
- EC50 [2]: 3030 nM
- EC50 [3, 8]: > 10 µM
- EC50 [4]: 415 nM
- EC50 [5]: 1010 nM
- EC50 [6]: 3300 nM
- EC50 [7]: 4 nM

SMILES: [2H]C([2H])([2H])c1ccc(C(=O)Nc2cc3cc(-c4cnc(C)n4C)ccc3cn2)cc1 [Compound 161, N-(6-(1,2-Dimethyl-1H-imidazol-5-yl)isoquinolin-3-yl)-4-(methyl-d3) benzamide]
- EC50 [1]: 736 nM
- EC50 [2]: 5670 nM
- EC50 [3, 8]: > 10 µM
- EC50 [4]: 660 nM
- EC50 [5]: 3000 nM
- inhibition at 10 µM [6]: 42.2%
- EC50 [6]: > 10000 nM
- EC50 [7]: 10 nM

SMILES: [2H]c1c([2H])c(C(=O)Nc2cc3cc(-c4cnc(C)n4C)ccc3cn2)c([2H])c([2H])c1C [Compound 162, N-(6-(1,2-Dimethyl-1H-imidazol-5-yl)isoquinolin-3-yl)-4-methylbenzamide-2,3,5,6-d4]
- EC50 [1]: 588 nM
- EC50 [2]: 5060 nM
- EC50 [3, 8]: > 10 µM
- EC50 [4]: 653 nM
- EC50 [5]: 2000 nM
- inhibition at 10 µM [6]: 44.7%
- EC50 [6]: > 10000 nM
- EC50 [7]: 11 nM

SMILES: [2H]c1c([2H])c(C([2H])([2H])[2H])c([2H])c([2H])c1C(=O)Nc1cc2cc(-c3cnc(C)n3C)ccc2cn1 [Compound 163, N-(6-(1,2-Dimethyl-1H-imidazol-5-yl)isoquinolin-3-yl)-4-(methyl-d3) benzamide-2,3,5,6-d4]
- EC50 [1]: 604 nM
- EC50 [2]: 4270 nM
- EC50 [3, 8]: > 10 µM
- EC50 [4]: 795 nM
- EC50 [5]: 876 nM
- EC50 [6]: 5720 nM
- EC50 [7]: 5 nM

SMILES: [2H]C([2H])([2H])Oc1ccc(C(=O)Nc2cc3cc(-c4cnc(C)n4C)ccc3cn2)cc1 [Compound 164, N-(6-(1,2-Dimethyl-1H-imidazol-5-yl)isoquinolin-3-yl)-4-(methoxy-d3) benzamide]
- EC50 [1]: 638 nM
- EC50 [2]: 4580 nM
- EC50 [3, 8]: > 10 µM
- EC50 [4]: 782 nM
- EC50 [5]: 1480 nM
- EC50 [6]: 3390 nM
- EC50 [7]: 11 nM

SMILES: [2H]c1c([2H])c(C(=O)Nc2cc3cc(-c4cnc(C)n4C)ccc3cn2)c([2H])c([2H])c1OC([2H])([2H])[2H] [Compound 165, N-(6-(1,2-Dimethyl-1H-imidazol-5-yl)isoquinolin-3-yl)-4-(methoxy-d3) benzamide-2,3,5,6-d4]
- EC50 [1]: 498 nM
- EC50 [2]: 3740 nM
- EC50 [3, 8]: > 10 µM
- EC50 [4]: 752 nM
- EC50 [5]: 998 nM
- EC50 [6]: 2850 nM
- EC50 [7]: 6 nM
